The structures appear in SMILES notation.

Assay [1] deals with T1, NIH-3T3 cells overexpressing human IR (Homo sapiens, UniProt P06213).
T1 construct: expressed in transfected cells; host or cells: NIH-3T3 (mouse fibroblasts)
As to the kind of experiment: IR cellular autophosphorylation (DELFIA). The assay is classed as cell-based. To be noted: 2 h compound, insulin 3 ug/ml for 15 minutes, IC50 category. The procedure, abridged: (§1)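 Receptor autophosphorylation measured by DELFIA, capturing IGF-1R or IRβ and detecting with europium anti-pTyr, reported as percent of IGF-1- or insulin-stimulated signal. Compounds (30 uM to 1.5 nM) added 2 h before ligand, then 15 min stimulation (IGF-1 30 ng/ml or insulin 3 ug/ml).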

Another assay concerns the target T2, human IR (hIR) (Homo sapiens, UniProt P06213).
T2 construct: containing amino acid residues 979-1382 of human IR; made in house; host or cells: Sf9 cells (baculovirus), same process as hIGF1R
The assay can be described thus: TR-FRET kinase assay of purified hIR. The assay is classed as biochemical. To be noted: activated hIR 0.5 nM, 10 μM ATP, values given as pIC50 category. For orientation: In TR-FRET formats the signal depends on donor and acceptor labels being close together.

The target of the next assay is T3, human IGF1R (hIGF1R) (Homo sapiens, UniProt P08069).
T3 construct: containing amino acid residues 957-1367 of human IGF1R; made in house; host or cells: Sf9 cells (baculovirus)
T3 sequence (P08069 957-1367): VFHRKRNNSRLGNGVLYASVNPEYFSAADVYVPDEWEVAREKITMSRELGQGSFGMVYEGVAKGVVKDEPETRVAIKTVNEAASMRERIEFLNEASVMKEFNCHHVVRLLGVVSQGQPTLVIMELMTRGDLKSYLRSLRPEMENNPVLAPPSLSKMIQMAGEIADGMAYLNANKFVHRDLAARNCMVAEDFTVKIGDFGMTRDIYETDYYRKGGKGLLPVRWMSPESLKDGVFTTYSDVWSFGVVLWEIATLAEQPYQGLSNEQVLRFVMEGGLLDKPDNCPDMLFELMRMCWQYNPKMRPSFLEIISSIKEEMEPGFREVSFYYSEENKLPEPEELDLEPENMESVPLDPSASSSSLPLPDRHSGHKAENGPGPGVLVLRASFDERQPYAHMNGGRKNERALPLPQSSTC
As to the kind of experiment: TR-FRET kinase assay of purified hIGF1R. The assay is classed as biochemical. Conditions: activated hIGF1R 0.5 nM, 10 μM ATP, values given as pIC50 category, read-out: IGF-1R pIC50 (converted).

Assay [2] has as its target T4, NIH-3T3 cells overexpressing human IGF-1R (Homo sapiens, UniProt P08069).
T4 construct: expressed in transfected cells; host or cells: NIH-3T3 (mouse fibroblasts)
The assay can be described thus: IGF-1R cellular autophosphorylation (DELFIA). The format is cell-based. The method, boiled down:
as §1

T1 sequence (P06213 28-1382): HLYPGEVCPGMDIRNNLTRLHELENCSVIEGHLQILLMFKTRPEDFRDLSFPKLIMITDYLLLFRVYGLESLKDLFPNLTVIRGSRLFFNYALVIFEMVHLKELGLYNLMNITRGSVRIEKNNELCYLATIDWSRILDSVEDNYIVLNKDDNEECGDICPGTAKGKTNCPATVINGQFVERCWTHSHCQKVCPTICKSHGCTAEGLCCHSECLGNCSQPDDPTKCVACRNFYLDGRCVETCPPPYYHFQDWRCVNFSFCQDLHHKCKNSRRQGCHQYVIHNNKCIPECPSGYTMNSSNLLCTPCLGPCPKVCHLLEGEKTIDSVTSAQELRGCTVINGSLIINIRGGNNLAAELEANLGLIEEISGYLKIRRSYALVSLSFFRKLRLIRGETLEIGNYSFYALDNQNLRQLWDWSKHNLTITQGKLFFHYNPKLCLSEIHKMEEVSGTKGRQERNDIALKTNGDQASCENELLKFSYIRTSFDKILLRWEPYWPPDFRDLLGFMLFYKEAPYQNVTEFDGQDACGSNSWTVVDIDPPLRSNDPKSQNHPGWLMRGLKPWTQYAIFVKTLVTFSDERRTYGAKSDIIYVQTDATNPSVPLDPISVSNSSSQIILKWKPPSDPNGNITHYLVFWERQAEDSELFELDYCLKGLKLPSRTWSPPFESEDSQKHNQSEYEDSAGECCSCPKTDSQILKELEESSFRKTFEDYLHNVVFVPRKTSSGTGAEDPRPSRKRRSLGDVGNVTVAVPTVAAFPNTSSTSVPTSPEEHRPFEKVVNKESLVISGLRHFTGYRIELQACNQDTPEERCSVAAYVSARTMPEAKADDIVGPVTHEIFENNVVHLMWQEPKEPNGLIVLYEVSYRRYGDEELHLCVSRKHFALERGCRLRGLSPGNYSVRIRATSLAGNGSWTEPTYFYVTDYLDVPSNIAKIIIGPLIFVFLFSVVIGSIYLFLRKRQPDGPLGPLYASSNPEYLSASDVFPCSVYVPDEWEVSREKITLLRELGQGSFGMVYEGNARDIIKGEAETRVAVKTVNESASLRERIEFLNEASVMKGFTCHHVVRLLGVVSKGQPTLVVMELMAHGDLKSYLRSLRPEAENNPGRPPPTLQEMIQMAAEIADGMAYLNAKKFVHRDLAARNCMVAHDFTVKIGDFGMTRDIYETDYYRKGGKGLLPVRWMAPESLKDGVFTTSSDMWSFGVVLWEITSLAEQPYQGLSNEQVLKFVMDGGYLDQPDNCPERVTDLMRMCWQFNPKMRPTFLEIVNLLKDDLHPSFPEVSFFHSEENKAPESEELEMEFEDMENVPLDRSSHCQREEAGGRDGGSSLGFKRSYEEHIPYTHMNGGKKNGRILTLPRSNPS
T2 sequence (P06213 979-1382): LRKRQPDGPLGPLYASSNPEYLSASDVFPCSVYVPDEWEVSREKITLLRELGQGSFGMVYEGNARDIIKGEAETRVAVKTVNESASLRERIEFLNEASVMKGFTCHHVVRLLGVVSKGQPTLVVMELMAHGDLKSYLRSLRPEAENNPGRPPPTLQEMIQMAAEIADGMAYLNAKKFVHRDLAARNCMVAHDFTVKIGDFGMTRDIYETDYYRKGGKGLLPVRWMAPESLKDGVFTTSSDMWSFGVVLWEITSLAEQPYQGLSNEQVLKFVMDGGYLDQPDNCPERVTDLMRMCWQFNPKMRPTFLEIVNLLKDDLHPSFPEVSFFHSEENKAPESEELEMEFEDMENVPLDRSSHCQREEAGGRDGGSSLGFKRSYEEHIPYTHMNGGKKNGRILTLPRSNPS
T4 sequence (P08069 31-1367): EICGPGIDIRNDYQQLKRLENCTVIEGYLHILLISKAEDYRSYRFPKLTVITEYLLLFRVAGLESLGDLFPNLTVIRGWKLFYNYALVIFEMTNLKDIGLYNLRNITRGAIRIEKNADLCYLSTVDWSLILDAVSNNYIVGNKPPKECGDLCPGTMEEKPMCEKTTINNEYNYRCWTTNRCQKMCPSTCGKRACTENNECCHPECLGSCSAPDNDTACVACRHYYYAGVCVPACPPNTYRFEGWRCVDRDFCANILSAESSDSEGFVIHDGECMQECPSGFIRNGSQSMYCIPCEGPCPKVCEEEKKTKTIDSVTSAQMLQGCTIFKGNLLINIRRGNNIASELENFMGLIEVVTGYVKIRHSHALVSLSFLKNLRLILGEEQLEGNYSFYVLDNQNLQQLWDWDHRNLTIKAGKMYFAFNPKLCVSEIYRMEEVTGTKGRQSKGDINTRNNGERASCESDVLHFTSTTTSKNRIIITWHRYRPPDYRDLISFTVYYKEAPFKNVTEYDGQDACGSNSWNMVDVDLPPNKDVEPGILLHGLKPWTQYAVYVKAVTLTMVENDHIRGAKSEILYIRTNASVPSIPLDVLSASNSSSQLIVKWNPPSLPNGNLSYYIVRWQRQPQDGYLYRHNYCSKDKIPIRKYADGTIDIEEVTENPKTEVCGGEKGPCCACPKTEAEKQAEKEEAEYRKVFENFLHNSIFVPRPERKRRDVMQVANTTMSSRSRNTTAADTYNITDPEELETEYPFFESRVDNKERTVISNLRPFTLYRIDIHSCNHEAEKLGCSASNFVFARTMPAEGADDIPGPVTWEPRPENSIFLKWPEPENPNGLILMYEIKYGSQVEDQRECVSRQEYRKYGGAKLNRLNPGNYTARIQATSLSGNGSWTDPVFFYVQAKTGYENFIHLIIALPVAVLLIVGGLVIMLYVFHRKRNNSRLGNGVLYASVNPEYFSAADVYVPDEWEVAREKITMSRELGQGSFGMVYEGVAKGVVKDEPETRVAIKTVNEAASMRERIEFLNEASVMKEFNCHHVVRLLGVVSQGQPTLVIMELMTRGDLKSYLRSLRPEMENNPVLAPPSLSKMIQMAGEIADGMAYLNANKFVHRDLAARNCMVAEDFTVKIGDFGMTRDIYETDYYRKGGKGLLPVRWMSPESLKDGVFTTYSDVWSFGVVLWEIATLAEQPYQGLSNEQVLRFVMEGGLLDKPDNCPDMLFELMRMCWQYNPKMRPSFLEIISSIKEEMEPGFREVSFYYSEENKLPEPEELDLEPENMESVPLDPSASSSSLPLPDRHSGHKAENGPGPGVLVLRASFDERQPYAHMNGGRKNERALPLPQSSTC

As to `CCNC(=O)c1c(F)cc(F)cc1Nc1nc(Nc2cc3c(cc2OC)CCCN3C(=O)CN(C)C)nc2[nH]ccc12` [Example 180, 2-[(2-{[1-(N,N-dimethylglycyl)-6-(methyloxy)-1,2,3,4-tetrahydro-7-quinolinyl]amino}-1H-pyrrolo[2,3-d]pyrimidin-4-yl)amino]-N-ethyl-4,6-difluorobenzamide], the IC50 in assay [1] was < 100 nM; on human IR (hIR), 1.26 to 3.98 nM; at human IGF1R (hIGF1R), 0.251 to 1 nM; in assay [2], < 100 nM.

As for `COc1cc2c(cc1Nc1nc(Nc3cccc(F)c3C(N)=O)c3cc[nH]c3n1)N(C(=O)CN1CCCCC1)CCC2` [Example 218, 2-fluoro-6-[(2-{[6-(methyloxy)-1-(1-piperidinylacetyl)-1,2,3,4-tetrahydro-7-quinolinyl]amino}-1H-pyrrolo[2,3-d]pyrimidin-4-yl)amino]benzamide], the IC50 was < 100 nM in assay [1], 0.251 to 1 nM on human IR (hIR), 0.251 to 1 nM at human IGF1R (hIGF1R) and < 100 nM in assay [2].

Turning to `COc1cc(N2CCN(C(C)C)CC2)ccc1Nc1nc(Nc2ccccc2C(N)=O)c2cc[nH]c2n1` [Example 7, 2-[(2-{[4-[4-(1-methylethyl)-1-piperazinyl]-2-(methyloxy)phenyl]amino}-1H-pyrrolo[2,3-d]pyrimidin-4-yl)amino]benzamide], the IC50 in assay [1] was 100 to 500 nM; against human IR (hIR) it was 0.251 to 1 nM; on human IGF1R (hIGF1R) it was 0.251 to 1 nM; in assay [2], < 100 nM.

For the compound `COc1cc2c(cc1Nc1nc(Nc3cc4ccccc4cc3C(N)=O)c3cc[nH]c3n1)N(C(=O)CN(C)C)CC2` [Example 124, 3-[(2-{[1-(N,N-dimethylglycyl)-5-(methyloxy)-2,3-dihydro-1H-indol-6-yl]amino}-1H-pyrrolo[2,3-d]pyrimidin-4-yl)amino]-2-naphthalenecarboxamide], the IC50 was 100 to 500 nM in assay [1], 0.251 to 1 nM on human IR (hIR), 0.251 to 1 nM at human IGF1R (hIGF1R) and < 100 nM in assay [2].

As for `CNC(=O)c1c(F)cccc1Nc1nc(Nc2cc3c(cc2OC)CCN3C(=O)COC)nc2[nH]ccc12` [Example 150, 2-fluoro-N-methyl-6-{[2-({5-(methyloxy)-1-[(methyloxy)acetyl]-2,3-dihydro-1H-indol-6-yl}amino)-1H-pyrrolo[2,3-d]pyrimidin-4-yl]amino}benzamide], the IC50 in assay [1] was > 500 nM; on human IR (hIR), 5.01 to 158 nM; at human IGF1R (hIGF1R), 5.01 to 200 nM; in assay [2], > 500 nM.

Consider `COc1cc2c(cc1Nc1nc(Nc3cc(Cl)cc(F)c3C(N)=O)c3cc[nH]c3n1)N(C(=O)CN(C)C)CC2` [Example 119, 4-chloro-2-[(2-{[1-(N,N-dimethylglycyl)-5-(methyloxy)-2,3-dihydro-1H-indol-6-yl]amino}-1H-pyrrolo[2,3-d]pyrimidin-4-yl)amino]-6-fluorobenzamide], for which the IC50 in assay [1] was < 100 nM; at human IR (hIR) it was 0.251 to 1 nM; on human IGF1R (hIGF1R), 0.251 to 1 nM; in assay [2], < 100 nM.

Consider `CCN(C)CC(=O)N1CCCc2cc(OC)c(Nc3nc(Nc4cccc(F)c4C(=O)NC)c4cc[nH]c4n3)cc21` [Example 132, 2-[(2{-[1-(N-ethyl-N-methylglycyl)-6-(methyloxy)-1,2,3,4-tetrahydro-7-quinolinyl]amino}-1H-pyrrolo[2,3-d]pyrimidin-4-yl)amino]-6-fluoro-N-methylbenzamide], for which the IC50 in assay [1] is < 100 nM; against human IR (hIR), 1.26 to 3.98 nM; at human IGF1R (hIGF1R) it was 5.01 to 200 nM; in assay [2], < 100 nM.

On to `COCC(=O)N1CCc2cc(OC)c(Nc3nc(Nc4cccc(F)c4C(N)=O)c4cc[nH]c4n3)cc21` [Example 149, 2-fluoro-6-{[2-({5-(methyloxy)-1-[(methyloxy)acetyl]-2,3-dihydro-1H-indol-6-yl}amino)-1H-pyrrolo[2,3-d]pyrimidin-4-yl]amino}benzamide], for which the IC50 in assay [1] is 100 to 500 nM; at human IR (hIR), 5.01 to 158 nM; at human IGF1R (hIGF1R), 5.01 to 200 nM; in assay [2] it was 100 to 500 nM.

For `CNC(=O)c1c(F)cccc1Nc1nc(Nc2cc3c(cc2OC)CCCN3C(=O)CCN(C)C)nc2[nH]ccc12` [Example 213, 2-[(2-{[1-(N,N-dimethyl-β-alanyl)-6-(methyloxy)-1,2,3,4-tetrahydro-7-quinolinyl]amino}-1H-pyrrolo[2,3-d]pyrimidin-4-yl)amino]-6-fluoro-N-methylbenzamide], the IC50 in assay [1] was > 500 nM; on human IR (hIR), 5.01 to 158 nM; at human IGF1R (hIGF1R), 5.01 to 200 nM; in assay [2], > 500 nM.

For the compound `COc1ccc(NC(=O)CN(C)C)cc1Nc1nc(Nc2cccc(F)c2C(N)=O)c2cc[nH]c2n1` [Example 244, 2-[(2-{[5-[(N,N-dimethylglycyl)amino]-2-(methyloxy)phenyl]amino}-1H-pyrrolo[2,3-d]pyrimidin-4-yl)amino]-6-fluorobenzamide], the IC50 is < 100 nM in assay [1], 0.251 to 1 nM against human IR (hIR), 0.251 to 1 nM on human IGF1R (hIGF1R) and < 100 nM in assay [2].

For `CCCNC(=O)c1c(F)cc(F)cc1Nc1nc(Nc2cc3c(cc2OC)CCN3C(=O)CN(C)C)nc2[nH]ccc12` [Example 152, 2-[(2-{[1-(N,N-dimethylglycyl)-5-(methyloxy)-2,3-dihydro-1H-indol-6-yl]amino}-1H-pyrrolo[2,3-d]pyrimidin-4-yl)amino]-4,6-difluoro-N-propylbenzamide], the IC50 in assay [1] was 100 to 500 nM; against human IR (hIR), 1.26 to 3.98 nM; at human IGF1R (hIGF1R), 0.251 to 1 nM; in assay [2], 100 to 500 nM.

Regarding `COc1cc2c(cc1Nc1nc(Nc3cc(F)cc(F)c3C(N)=O)c3cc[nH]c3n1)N(C(=O)CN(C)C)CC2` [Example 189, 2-[(2-{[1-(N,N-dimethylglycyl)-5-(methyloxy)-2,3-dihydro-1H-indol-6-yl]amino}-1H-pyrrolo[2,3-d]pyrimidin-4-yl)amino]-4,6-difluorobenzamide], the IC50 in assay [1] is < 100 nM; at human IR (hIR) it was 0.251 to 1 nM; on human IGF1R (hIGF1R), 0.251 to 1 nM; in assay [2] it was < 100 nM.

For `COc1cc2c(cc1Nc1nc(Nc3cccc(F)c3C(N)=O)c3cc[nH]c3n1)N(C(=O)CCN1CCOCC1)CC2` [Example 187, 2-fluoro-6-{[2-({5-(methyloxy)-1-[3-(4-morpholinyl)propanoyl]-2,3-dihydro-1H-indol-6-yl}amino)-1H-pyrrolo[2,3-d]pyrimidin-4-yl]amino}benzamide], the IC50 in assay [1] was 100 to 500 nM; against human IR (hIR), 5.01 to 158 nM; on human IGF1R (hIGF1R) it was 5.01 to 200 nM; in assay [2], 100 to 500 nM.

Consider `CNC(=O)c1c(F)cccc1Nc1nc(Nc2cc3c(cc2OC)CCN3C(=O)C(C)(C)O)nc2[nH]ccc12` [Example 193, 2-fluoro-6-[(2-{[1-(2-hydroxy-2-methylpropanoyl)-5-(methyloxy)-2,3-dihydro-1H-indol-6-yl]amino}-1H-pyrrolo[2,3-d]pyrimidin-4-yl)amino]-N-methylbenzamide], for which the IC50 is > 500 nM in assay [1], 5.01 to 158 nM against human IR (hIR), 5.01 to 200 nM on human IGF1R (hIGF1R) and > 500 nM in assay [2].

As to `CN(C)CC(=O)Nc1ccc(OC(F)(F)F)c(Nc2nc(Nc3ccccc3C(N)=O)c3cc[nH]c3n2)c1` [Example 16, 2-{[2-({5-[(N,N-dimethylglycyl)amino]-2-[(trifluoromethyl)oxy]phenyl}amino)-1H-pyrrolo[2,3-d]pyrimidin-4-yl]amino}benzamide], the IC50 in assay [1] is 100 to 500 nM; against human IR (hIR), 0.251 to 1 nM; at human IGF1R (hIGF1R), 0.251 to 1 nM; in assay [2], 100 to 500 nM.

Turning to `CCCN(C)CC(=O)N1CCc2cc(OC)c(Nc3nc(Nc4cccc(F)c4C(N)=O)c4cc[nH]c4n3)cc21` [Example 168, 2-fluoro-6-[(2-{[5-(methyloxy)-1-(N-methyl-N-propylglycyl)-2,3-dihydro-1H-indol-6-yl]amino}-1H-pyrrolo[2,3-d]pyrimidin-4-yl)amino]benzamide], the IC50 in assay [1] is < 100 nM; on human IR (hIR) it was 0.251 to 1 nM; on human IGF1R (hIGF1R), 0.251 to 1 nM; in assay [2], < 100 nM.

With `CCCN1CCCC(c2ccc(Nc3nc(Nc4ccccc4C(N)=O)c4cc[nH]c4n3)c(OC)c2)C1` (stereo not shown) [Example 3, 2-[(2-{[2-(methyloxy)-4-(1-propyl-3-piperidinyl)phenyl]amino}-1H-pyrrolo[2,3-d]pyrimidin-4-yl)amino]benzamide], the IC50 in assay [1] is < 100 nM; at human IR (hIR), 0.251 to 1 nM; on human IGF1R (hIGF1R) it was 0.251 to 1 nM; in assay [2], < 100 nM.

For the compound `CNC(=O)c1c(F)cc(F)cc1Nc1nc(Nc2cc3c(cc2OC)CCCN3C(=O)CN2CCCC2)nc2[nH]ccc12` [Example 221, 2,4-difluoro-N-methyl-6-[(2-{[6-(methyloxy)-1-(1-pyrrolidinylacetyl)-1,2,3,4-tetrahydro-7-quinolinyl]amino}-1H-pyrrolo[2,3-d]pyrimidin-4-yl)amino]benzamide], the IC50 in assay [1] was < 100 nM; on human IR (hIR), 0.251 to 1 nM; on human IGF1R (hIGF1R), 0.251 to 1 nM; in assay [2], < 100 nM.

For the compound `COc1cc2c(cc1Nc1nc(Nc3ccc(F)c(F)c3C(=O)NC(C)C)c3cc[nH]c3n1)N(C(=O)CN(C)C)CC2` [Example 161, 6-[(2-{[1-(N,N-dimethylglycyl)-5-(methyloxy)-2,3-dihydro-1H-indol-6-yl]amino}-1H-pyrrolo[2,3-d]pyrimidin-4-yl)amino]-2,3-difluoro-N-(1-methylethyl)benzamide], the IC50 in assay [1] was > 500 nM; against human IR (hIR), 5.01 to 158 nM; on human IGF1R (hIGF1R) it was 5.01 to 200 nM; in assay [2], 100 to 500 nM.

These data come from patent US7981903B2, “2-[2-{phenylamino}-1H-pyrrolo[2,3-D]pyrimidin-4-yl)amino] benzamide derivatives as IGF-1R inhibitors for the treatment of cancer” (GlaxoSmithKline LLC, priority 2007, dated 2011).
